Assay: R1 relaxivity determination (T1 relaxometry, slope of 1/T1 vs. Gd concentration)
Assay type: physicochemical
Conditions: 1.41 T (60 MHz), 40° C.
Description: Instrumentation. Dynamic light scattering (DLS) measurements were performed on a Zetasizer Nano from Malvern Instruments. The scattering angle was held constant at 90°. Microscopy measurements were performed on an Olympus IX 81 motorized inverted fluorescence microscope equipped with an Andor DU897 EMCCD, an X-Cite 120 excitation source (EXFO) and Sutter excitation and emission filter wheels. Image of FITC was acquired using the filter set HQ480/40, HQ535/50, Q505LP. Filter set was purchased from Chroma. Tl-relaxation times were determined using a Bruker mq60 MR relaxometer operating at 1.41 T (60 MHz). ICP-AES was performed by VHG Laboratories (Manchester, N.H.). Transmission electron microscopy (TEM) was performed with a JEOL 2010 electron microscope operated at 80 kV.
To assess the paramagnetic properties of the Gd-conjugated DNCs, the amount of Gd within the sample was determined by inductively coupled plasma atomic emission spectroscopy (ICP-AES). Tl-relaxation times were determined using a Bruker mq60 MR relaxometer operating at 1.41 T (60 MHz) and at 40° C. […] It is likely that only a marginal increase in R1 was observed, despite the larger size of DNCs, due to the “saturation” of ion relaxivity, which has also previously been reported for high generation dendrimers. As a point of comparison, Gd-DTPA was determined to have an R1 of 3.9 mM^−1 s^−1 per Gd.

- R1 relaxivity per Gd: 3.9 mM⁻¹ s⁻¹
SMILES: O=C([O-])CN(CCN(CC(=O)[O-])CC(=O)O)CCN(CC(=O)[O-])CC(=O)O.[Gd+3] [Gd-DTPA]
